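Five compound concentrations were applied to cells in 96-well plates for 48 hours; endpoints were derived by simple linear interpolation of the resulting dose-response curve. Here, GI50 denotes the concentration required for 50% inhibition of growth. TGI denotes the concentration required for complete inhibition of growth.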
What was measured:
Assay in all cases: NCI tumour cell line growth inhibition, 48 h
A498 renal = system: A498 renal
DU-145 prostate = system: DU-145 prostate
HCC-2998 colon = system: HCC-2998 colon
HCT-15 colon = system: HCT-15 colon
HL-60(TB) leukemia = system: HL-60(TB) leukemia
HS 578T breast = system: HS 578T breast
KM12 colon = system: KM12 colon
LOX IMVI melanoma = system: LOX IMVI melanoma
M14 melanoma = system: M14 melanoma
MCF7 breast = system: MCF7 breast
MDA-MB-435 = system: MDA-MB-435
NCI-H226 lung = system: NCI-H226 lung
NCI-H23 lung = system: NCI-H23 lung
NCI-H460 lung = system: NCI-H460 lung
OVCAR-3 ovarian = system: OVCAR-3 ovarian
OVCAR-4 ovarian = system: OVCAR-4 ovarian
SK-MEL-5 melanoma = system: SK-MEL-5 melanoma
SNB-75 CNS = system: SNB-75 CNS
SW-620 colon = system: SW-620 colon
UACC-257 melanoma = system: UACC-257 melanoma
786-0 renal = system: 786-0 renal
A549 NSCLC = system: A549 NSCLC
ACHN renal = system: ACHN renal
BT-549 breast = system: BT-549 breast
CAKI-1 renal = system: CAKI-1 renal
CCRF-CEM leukemia = system: CCRF-CEM leukemia
COLO 205 colon = system: COLO 205 colon
EKVX NSCLC = system: EKVX NSCLC
HCT-116 colon = system: HCT-116 colon
HOP-62 NSCLC = system: HOP-62 NSCLC
HOP-92 NSCLC = system: HOP-92 NSCLC
HT29 colon = system: HT29 colon
IGROV1 ovarian = system: IGROV1 ovarian
K-562 leukemia = system: K-562 leukemia
MALME-3M melanoma = system: MALME-3M melanoma
MDA-MB-231 breast = system: MDA-MB-231 breast
MOLT-4 leukemia = system: MOLT-4 leukemia
NCI-H522 lung = system: NCI-H522 lung
NCI/ADR-RES ovarian = system: NCI/ADR-RES ovarian
OVCAR-5 ovarian = system: OVCAR-5 ovarian
OVCAR-8 ovarian = system: OVCAR-8 ovarian
PC-3 prostate = system: PC-3 prostate
RPMI-8226 leukemia = system: RPMI-8226 leukemia
RXF 393 renal = system: RXF 393 renal
SF-268 CNS = system: SF-268 CNS
SF-295 CNS = system: SF-295 CNS
SF-539 CNS = system: SF-539 CNS
SK-MEL-2 melanoma = system: SK-MEL-2 melanoma
SK-MEL-28 melanoma = system: SK-MEL-28 melanoma
SK-OV-3 ovarian = system: SK-OV-3 ovarian
SN12C renal = system: SN12C renal
SNB-19 CNS = system: SNB-19 CNS
SR leukemia = system: SR leukemia
T-47D breast = system: T-47D breast
TK-10 renal = system: TK-10 renal
U251 CNS = system: U251 CNS
UACC-62 melanoma = system: UACC-62 melanoma
UO-31 renal = system: UO-31 renal

Brc1ccc2c(c1)c(-c1nc(-c3c[nH]c4ncccc34)cs1)cn2CCCN1CCCCC1
GI50 (A498 renal): 2.32 µM
TGI (A498 renal): 9.16 µM
GI50 (DU-145 prostate): 1.77 µM
TGI (DU-145 prostate): 3.18 µM
GI50 (HCC-2998 colon): 1.82 µM
TGI (HCC-2998 colon): 3.41 µM
GI50 (HCT-15 colon): 1.66 µM
TGI (HCT-15 colon): 3.08 µM
GI50 (HL-60(TB) leukemia): 1.9 µM
TGI (HL-60(TB) leukemia): 4.57 µM
GI50 (HS 578T breast): 2.13 µM
TGI (HS 578T breast): 5.55 µM
GI50 (KM12 colon): 1.82 µM
TGI (KM12 colon): 3.48 µM
GI50 (LOX IMVI melanoma): 1.68 µM
TGI (LOX IMVI melanoma): 3.08 µM
GI50 (M14 melanoma): 1.79 µM
TGI (M14 melanoma): 3.39 µM
GI50 (MCF7 breast): 1.62 µM
TGI (MCF7 breast): 3.11 µM
GI50 (MDA-MB-435): 1.86 µM
TGI (MDA-MB-435): 3.49 µM
GI50 (NCI-H226 lung): 1.89 µM
TGI (NCI-H226 lung): 5.01 µM
GI50 (NCI-H23 lung): 1.75 µM
TGI (NCI-H23 lung): 3.37 µM
GI50 (NCI-H460 lung): 1.78 µM
TGI (NCI-H460 lung): 3.37 µM
GI50 (OVCAR-3 ovarian): 1.89 µM
TGI (OVCAR-3 ovarian): 3.43 µM
GI50 (OVCAR-4 ovarian): 2.24 µM
TGI (OVCAR-4 ovarian): 4.88 µM
GI50 (SK-MEL-5 melanoma): 1.74 µM
TGI (SK-MEL-5 melanoma): 3.14 µM
GI50 (SNB-75 CNS): 1.85 µM
TGI (SNB-75 CNS): 4.59 µM
GI50 (SW-620 colon): 1.75 µM
TGI (SW-620 colon): 3.31 µM
GI50 (UACC-257 melanoma): 1.9 µM
TGI (UACC-257 melanoma): 3.5 µM

CN(C)c1ccc(N=C(C#N)c2nc(N)nc(N3CCN(c4ccccc4)CC3)n2)cc1
GI50 (786-0 renal): > 50 µM
TGI (786-0 renal): > 50 µM
GI50 (A549 NSCLC): 15.3 µM
TGI (A549 NSCLC): > 34.2 µM
GI50 (ACHN renal): 22.3 µM
TGI (ACHN renal): > 50 µM
GI50 (BT-549 breast): 23.6 µM
TGI (BT-549 breast): > 50 µM
GI50 (CAKI-1 renal): 20.4 µM
TGI (CAKI-1 renal): > 46.7 µM
GI50 (CCRF-CEM leukemia): > 50 µM
TGI (CCRF-CEM leukemia): > 50 µM
GI50 (COLO 205 colon): > 42.4 µM
TGI (COLO 205 colon): > 50 µM
GI50 (DU-145 prostate): 11.6 µM
TGI (DU-145 prostate): > 28.1 µM
GI50 (EKVX NSCLC): > 30.1 µM
TGI (EKVX NSCLC): > 50 µM
GI50 (HCC-2998 colon): 26.6 µM
TGI (HCC-2998 colon): > 50 µM
GI50 (HCT-116 colon): 17.4 µM
TGI (HCT-116 colon): > 50 µM
GI50 (HCT-15 colon): > 28.5 µM
TGI (HCT-15 colon): > 50 µM
GI50 (HL-60(TB) leukemia): > 50 µM
TGI (HL-60(TB) leukemia): > 50 µM
GI50 (HOP-62 NSCLC): > 28.6 µM
TGI (HOP-62 NSCLC): > 50 µM
GI50 (HOP-92 NSCLC): 49.8 µM
TGI (HOP-92 NSCLC): > 50 µM
GI50 (HT29 colon): 21.2 µM
TGI (HT29 colon): > 50 µM
GI50 (IGROV1 ovarian): 14.8 µM
TGI (IGROV1 ovarian): > 50 µM
GI50 (K-562 leukemia): > 50 µM
TGI (K-562 leukemia): > 50 µM
GI50 (KM12 colon): 49.6 µM
TGI (KM12 colon): > 50 µM
GI50 (LOX IMVI melanoma): 19.6 µM
TGI (LOX IMVI melanoma): > 45.1 µM
GI50 (M14 melanoma): > 50 µM
TGI (M14 melanoma): > 50 µM
GI50 (MALME-3M melanoma): 0.0338 µM
TGI (MALME-3M melanoma): 1.16 µM
GI50 (MCF7 breast): 21 µM
TGI (MCF7 breast): 37.4 µM
GI50 (MDA-MB-231 breast): 10.7 µM
TGI (MDA-MB-231 breast): 31.3 µM
GI50 (MDA-MB-435): > 43.9 µM
TGI (MDA-MB-435): > 50 µM
GI50 (MOLT-4 leukemia): > 50 µM
TGI (MOLT-4 leukemia): > 50 µM
GI50 (NCI-H226 lung): 22.3 µM
TGI (NCI-H226 lung): > 50 µM
GI50 (NCI-H23 lung): > 50 µM
TGI (NCI-H23 lung): > 50 µM
GI50 (NCI-H460 lung): 14.7 µM
TGI (NCI-H460 lung): > 37 µM
GI50 (NCI-H522 lung): > 50 µM
TGI (NCI-H522 lung): > 50 µM
GI50 (NCI/ADR-RES ovarian): 34.2 µM
TGI (NCI/ADR-RES ovarian): > 50 µM
GI50 (OVCAR-3 ovarian): 27.5 µM
TGI (OVCAR-3 ovarian): > 50 µM
GI50 (OVCAR-4 ovarian): 18.9 µM
TGI (OVCAR-4 ovarian): > 34.1 µM
GI50 (OVCAR-5 ovarian): > 50 µM
TGI (OVCAR-5 ovarian): > 50 µM
GI50 (OVCAR-8 ovarian): 18 µM
TGI (OVCAR-8 ovarian): > 37.2 µM
GI50 (PC-3 prostate): 36.9 µM
TGI (PC-3 prostate): > 50 µM
GI50 (RPMI-8226 leukemia): > 26.8 µM
TGI (RPMI-8226 leukemia): > 50 µM
GI50 (RXF 393 renal): 22.1 µM
TGI (RXF 393 renal): 39.1 µM
GI50 (SF-268 CNS): 11.7 µM
TGI (SF-268 CNS): 34.9 µM
GI50 (SF-295 CNS): 14.7 µM
TGI (SF-295 CNS): > 43.7 µM
GI50 (SF-539 CNS): 18.4 µM
TGI (SF-539 CNS): > 50 µM
GI50 (SK-MEL-2 melanoma): > 50 µM
TGI (SK-MEL-2 melanoma): > 50 µM
GI50 (SK-MEL-28 melanoma): 12.7 µM
TGI (SK-MEL-28 melanoma): > 50 µM
GI50 (SK-MEL-5 melanoma): 24.5 µM
TGI (SK-MEL-5 melanoma): > 47.5 µM
GI50 (SK-OV-3 ovarian): 16.6 µM
TGI (SK-OV-3 ovarian): > 35.4 µM
GI50 (SN12C renal): > 50 µM
TGI (SN12C renal): > 50 µM
GI50 (SNB-19 CNS): > 50 µM
TGI (SNB-19 CNS): > 50 µM
GI50 (SNB-75 CNS): 6.9 µM
TGI (SNB-75 CNS): 25.6 µM
GI50 (SR leukemia): > 50 µM
TGI (SR leukemia): > 50 µM
GI50 (SW-620 colon): 22.1 µM
TGI (SW-620 colon): > 50 µM
GI50 (T-47D breast): > 50 µM
TGI (T-47D breast): > 50 µM
GI50 (TK-10 renal): > 30.6 µM
TGI (TK-10 renal): > 50 µM
GI50 (U251 CNS): > 35.1 µM
TGI (U251 CNS): > 50 µM
GI50 (UACC-257 melanoma): 28.1 µM
TGI (UACC-257 melanoma): > 44.2 µM
GI50 (UACC-62 melanoma): > 50 µM
TGI (UACC-62 melanoma): > 50 µM
GI50 (UO-31 renal): > 18 µM
TGI (UO-31 renal): > 32.5 µM
